Two compounds from patent US20130143795A1, “METHOD OF TREATMENT OF HIV OR AIDS” (Adistem Ltd., priority 2010, published 2013) can be followed below.

The subject of series [1] is CXCR4 coreceptor-trophic HT/92/599 strain of HIV-1. Kind of series: Antiviral assay in fresh human PBMCs, HIV-1 HT/92/599. The class given is cell-based. The note with it: for antiviral activity against HIV-1 HT/92/599 (T-cell tropic): concentrations up to a high test concentration of 500 μM. The method, then:
(§1) The peptide Ac-LKKTETQ-OH was evaluated in fresh human peripheral blood mononuclear cells (PBMCs) against CXCR4 coreceptor-trophic HT/92/599 and the CCR5 coreceptor-trophic BaL subtype B strains of HIV-1. The peptide was added to the cells at 8 hours prior to infection and immediately prior to infection. The AZT control compound was evaluated in parallel with the peptide and yielded EC50 values of 8 and 6 nM against HIV-1HT/92/599 and values of 6 and 10 nM against HIV-1PaL.

For series [2], the system named is CCR5 coreceptor-trophic BaL subtype B strain of HIV-1. Description: Antiviral assay in fresh human PBMCs, HIV-1 BaL. The class given is cell-based. To be noted: for antiviral activity against HIV-1 BaL (macrophage tropic): concentrations up to a high test concentration of 500 μM. The method, then: as §1
In series [3] the test system is CD8-positive white blood cell. Description: Pilot trial: CD8-positive white blood cell counts. Type of series: in vivo, human. On the procedure:
(§2) The peptide Ac-LKKTETQ-OH was the active therapeutic agent investigated in a pilot trial on twenty similar HIV positive men and women, some who had progressed to severe AIDS.
(§3) Each man or women was injected subcutaneously with a composition comprising the peptide Ac-LKKTETQ-OH (10 mg), once a week for 12 weeks. Blood tests for CD4 and CD8-positive cells and HIV viral load (by PCR) and routine pathology were conducted at baseline, 8 weeks and 12 weeks. […] A small drop in blood glucose was seen but this was not determined to be significant.

Series [4] concerns CD4-positive white blood cell. Kind of series: Pilot trial: CD4-positive white blood cell counts. Type of series: in vivo, human. On the procedure: as §2, §3
The next series has as its system HIV. Kind of series: Pilot trial: HIV viral load (by PCR). Type of series: in vivo. On the procedure: as §2, §3
Series [5] in a line: Pilot trial: routine pathology and adverse effects. To be noted: 10 mg s.c. once a week for 12 weeks. The class given is in vivo, human. The method, then: as §2, §3
A short description of another series: Pilot trial: body weight. To be noted: HIV positive patients, 10 mg s.c. once a week, one value per patient (A-T). Type of series: in vivo, human. The method, then:
as §2, §3

The mark [6] stands for this setting: HIV positive patients and those showing symptoms of AIDS.
Setting [7] is: HIV positive patients, 10 mg s.c. once a week, 8 weeks, one value per patient (A-T).
The mark [8] stands for this setting: HIV positive patients, 10 mg s.c. once a week, 12 weeks, one value per patient (A-T).

pEC50: −log10 of the molar value. “And” between values parts separate entries of the source, which are not always exact repeats. Equal entries are not always repeated.

As to `Cc1cn([C@H]2C[C@H](N=[N+]=[N-])[C@@H](CO)O2)c(=O)[nH]c1=O` [AZT, reference compound], the pEC50 in series [1] (two values, evaluated in parallel with peptide added 8 hours prior to and immediately prior to infection, read-out: EC50 against HIV-1HT/92/599) was 8.10 and 8.22; in series [2] (two values, evaluated in parallel with peptide added 8 hours prior to and immediately prior to infection, read-out: EC50 against HIV-1PaL) it was 8.22 and 8.00.
Ac-LKKTETQ-OH [Ac-LKKTETQ-OH]: the “CD8 positive white blood cell counts (summary)” value in series [3] (setting [6]) was “increased”. Besides, in series [3] (setting [7]), the “CD8-positive white blood cell count, 8 weeks” value is 980 and 360 and 1310 and 1379 and 1044 and 1296 and 959 and 2120 and 866 and 773 and 594 (2×) and 606 and 939 and 617 and 648 and 456 and 1108 and 1125. Moreover, the “CD8-positive white blood cell count, 12 weeks” value in series [3] (setting [8]) is 1330 and 459 and 1718 and 1394 and 1339 and 1226 and 1190 and 2647 and 958 and 800 and 712 and 893 and 983 and 1034 and 880 and 890 and 521 and 1384 and 1201 and 660. For the same compound, the “CD4 positive white blood cell counts (summary)” value in series [4] (setting [6]) is on record as “increased”. In addition, in series [4] (setting [7]), the “CD4-positive white blood cell count, 8 weeks” value is 816 and 415 and 158 and 407 and 456 and 477 and 348 and 381 and 439 and 301 and 335 and 543 and 428 and 466 (2×) and 259 and 471 and 300 and 316 and 602. Also, the “CD4-positive white blood cell count, 12 weeks” value in series [4] (setting [8]) was 879 and 604 and 175 and 425 and 625 and 662 and 404 and 498 and 510 and 424 and 452 and 749 and 616 and 602 and 368 and 469 and 571 and 430 and 416 and 675. For the same compound, the “antiviral activity against HIV-1 HT/92/599 (T-cell tropic)” value was “no effect” in series [1] (listed as SEQ ID NO: 1) and “did not demonstrate antiviral activity” in series [1] (listed as SEQ ID NO:1). In the series on HIV (setting [6]), the “viral load (summary)” value was “decreased viral load significantly”. The “HIV Viral Load, 8 weeks” value with HIV (HIV positive patients, 10 mg s.c. once a week, 8 weeks, by PCR, one value per patient (A-T)) was “undetectable (9×) and 28410 copies/ml and 450 copies/ml and 8214 copies/ml and 17616 copies/ml and 15201 copies/ml and 145 copies/ml and 12004 copies/ml and 8781 copies/ml and 200 copies/ml and 98687 copies/ml and 24 copies/ml”. In the series on HIV (HIV positive patients, 10 mg s.c. once a week, 12 weeks, by PCR, one value per patient (A-T)), the “HIV Viral Load, 12 weeks” value was “undetectable (19×) and 5151 copies/ml”. The “antiviral activity against HIV-1 BaL (macrophage tropic)” value in series [2] (listed as SEQ ID NO: 1) is “no effect”; in series [2] (listed as SEQ ID NO:1), “did not demonstrate antiviral activity”. In addition, the adverse effect entry in series [5] was “No adverse effect”. For the same compound, the “Hemoglobin levels, Creatinine, ALT, AST, Alkaline Phos, Bilirubin, GGT, Albumin, Total Protein and globulin tests” value in series [5] (baseline, 8 and 12 weeks) is “did not show anything remarkable”. Besides, in series [5] (not determined to be significant), the blood glucose result was “small drop”. For the same compound, in “Pilot trial: body weight” (8 weeks), the “Weight, 8 weeks” value was 92 and 52 and 59 and 71 and 82 and 79 (2×) and 72 (2×) and 60.5 and 50.5 and 58 and 71.5 and 68.5 and 61 and 56 and 55 and 70 and 78 (2×). Further, the “Weight, 12 weeks” value in “Pilot trial: body weight” (12 weeks) is 92 and 52 and 72 (4×) and 82 and 79 and 71 (2×) and 51 and 65 and 80 and 69 and 60 and 55 and 58 and 70.5 and 78.5 (2×).
